Reference: PubChem BioAssay (NCI)
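Grown in 96-well plates, cells were treated for 48 hours with each compound at five concentrations. Insufficient inhibition: endpoint recorded as highest concentration tested. GI50: concentration for 50% inhibition of growth. TGI marks complete inhibition of growth.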

Assays:
Assay in all cases: growth of human tumour cells (NCI), 48 h
[1] = test system: M14 melanoma
[2] = test system: NCI-H460 lung
[3] = test system: NCI-H23 lung
[4] = test system: SK-MEL-28 melanoma
[5] = test system: MALME-3M melanoma
[6] = test system: SK-MEL-2 melanoma
[7] = test system: HL-60(TB) leukemia
[8] = test system: MOLT-4 leukemia
[9] = test system: OVCAR-5 ovarian
[10] = test system: LOX IMVI melanoma

Row | SMILES | TGI [1] [µM] | TGI [2] [µM] | TGI [3] [µM] | TGI [4] [µM] | TGI [5] [µM] | TGI [6] [µM] | TGI [7] [µM] | TGI [8] [µM] | TGI [9] [µM] | TGI [10] [µM] | GI50 [1] [µM] | GI50 [3] [µM] | GI50 [4] [µM] | GI50 [5] [µM] | GI50 [10] [µM] | GI50 [6] [µM] | GI50 [7] [µM] | GI50 [8] [µM] | GI50 [9] [µM] | GI50 [2] [µM]
1 | Cc1cc2c(cc1-c1cc3c(cc1C)C(C(C)C)=C(O)C(=O)/C3=C\Nc1nc(-c3ccccc3)cs1)/C(=C/Nc1nc(-c3ccccc3)cs1)C(=O)C(O)=C2C(C)C | 30.1 | 46 | 28.8 | 30.4 | > 100 | 50.9 | > 100 | > 100 |  |  |  |  |  |  |  |  |  |  |  | 
2 | CCOC(=O)c1ccc(-c2cc(C)[nH]n2)[nH]1 | > 100 | > 100 | > 100 | > 100 | > 100 | > 100 | > 100 |  | > 100 | > 100 |  |  |  |  |  |  |  |  |  | 
3 | CC1(C)CCC[C@]2(C)[C@@H]1CC[C@@]13O[C@@H]1C1=C(CO)C(=O)O[C@]14O[C@@H]4[C@@H]23 | 23.6 | 41 | 28.4 | 31.4 | 32.4 | 31.6 |  | > 100 | 31.8 | 24 |  |  |  |  |  |  |  |  |  | 
4 | CSC1=Nc2ccccc2-c2nc(-c3ccccc3)cc(-c3ccccc3)c2C1 | 37.1 | > 100 | 33.5 | > 100 |  |  | > 100 | > 100 | > 100 | > 100 |  |  |  |  |  |  |  |  |  | 
5 | CCOC(=O)c1c(SC(=O)c2cc(OC)c(OC)c(OC)c2)n(-c2ccccc2)c(=S)n(-c2ccccc2)c1=O | > 100 | > 100 | > 100 | > 100 | > 100 |  | > 100 | > 100 | > 100 | > 100 |  |  |  |  |  |  |  |  |  | 
6 | C(=N\Nc1ncc(-c2cc3cc4c(cc3o2)OCO4)s1)/c1c[nH]c2ccccc12 | 12.7 |  | 5.19 | 12.2 | 4.02 | 8.07 | 14.4 | 9.49 |  | 1.7 | 3.34 | 1.77 | 3.17 | 1.4 | 0.426 | 2.6 | 2.18 | 0.385 |  | 
7 | CCSc1ncnc2c(C3OC(CO)C(O)C3O)nsc12 (stereo unspecified) | > 100 |  |  | > 100 | > 100 | > 100 | > 100 | > 100 | > 100 | > 100 |  |  |  |  |  |  |  |  |  | 
8 | CCN(CC)CCCCCCCCNc1c2ccc(Cl)cc2nc2ccc(OC)cc12 | 3.34 | 2.56 | 7.25 | 3.63 |  |  | 4.08 | 4.68 | 3.99 | 4.94 | 1.84 | 2.28 | 1.95 |  | 1.48 |  | 2.04 | 0.951 | 1.64 | 0.883
9 | COc1ccc2c(c1)OCC1(O)Cc3ccccc3OC21 (stereo unspecified) | > 100 |  | > 100 |  | > 100 | > 100 |  | > 100 | > 100 | > 100 |  |  |  |  |  |  |  |  |  | 
10 | COC12C=C/C(=C(/C(=O)OCc3ccncn3)C(=O)CCCCCCCCC3(OC)C=C/C(=C(/C(=O)OCc4ccncn4)C(=O)CCCCCCCC1)O3)O2 | 3.23 | 1.02 | 0.944 | 2.51 | 0.629 | 5.55 | 1.4 |  | 4.81 | 0.503 | 0.286 | 0.293 | 0.317 | 0.228 | 0.211 | 0.428 | 0.298 |  | 0.334 | 0.319
11 | CC(=O)NC1(C)CCC(C(C)(C)NC(C)=O)CC1 (stereo unspecified) | > 100 | > 100 | > 100 | > 100 | > 100 |  | > 100 | > 100 | > 100 | > 100 |  |  |  |  |  |  |  |  |  | 
12 | CC(=O)N1N=C(c2c(O)ccc3ccccc23)CC1C(=O)c1ccco1 (stereo unspecified) | > 100 | > 100 | 84.6 | > 100 | > 100 | 43.1 |  | 60.1 | > 100 |  |  |  |  |  |  |  |  |  |  | 
13 | COc1ccc2oc(S(=O)(=O)N3CC(CCl)c4ccc([N+](=O)[O-])cc43)cc2c1 (stereo unspecified) | 32.7 | 0.401 | > 24 | > 61.6 | 32.8 | 2.96 |  | > 100 | > 100 | 1.38 |  |  |  |  |  |  |  |  |  | 
14 | O=S(=O)(c1cc(Cl)ccc1Cl)N1CCN(S(=O)(=O)c2cc(Cl)ccc2Cl)CC1 | > 100 | > 100 | 18.7 | > 100 | > 100 | > 100 |  | > 100 | 30 |  |  |  |  |  |  |  |  |  |  | 
15 | COc1ccc(/C=N\N2CC(=O)N3C4C=CC(CC4)N3C2=O)cc1 (stereo unspecified) | > 100 | > 100 | > 100 | > 100 |  | > 100 | > 100 | > 100 | > 100 | > 100 |  |  |  |  |  |  |  |  |  | 
